Where two headings read alike, the source gives them in different places.

By IC50 is commonly meant the concentration needed to halve the response being measured.

The target in the experiment is acetylcholinesterase (AChE) from Electrophorus electricus (electric eel) (Electrophorus electricus, UniProt O42275). Kind of experiment: Ellman assay, […] nm. Type of experiment: biochemical. For orientation: In Ellman's method for cholinesterases, released thiocholine reacts with DTNB.
Chain of acetylcholinesterase (AChE) from Electrophorus electricus (electric eel) (O42275 24-633): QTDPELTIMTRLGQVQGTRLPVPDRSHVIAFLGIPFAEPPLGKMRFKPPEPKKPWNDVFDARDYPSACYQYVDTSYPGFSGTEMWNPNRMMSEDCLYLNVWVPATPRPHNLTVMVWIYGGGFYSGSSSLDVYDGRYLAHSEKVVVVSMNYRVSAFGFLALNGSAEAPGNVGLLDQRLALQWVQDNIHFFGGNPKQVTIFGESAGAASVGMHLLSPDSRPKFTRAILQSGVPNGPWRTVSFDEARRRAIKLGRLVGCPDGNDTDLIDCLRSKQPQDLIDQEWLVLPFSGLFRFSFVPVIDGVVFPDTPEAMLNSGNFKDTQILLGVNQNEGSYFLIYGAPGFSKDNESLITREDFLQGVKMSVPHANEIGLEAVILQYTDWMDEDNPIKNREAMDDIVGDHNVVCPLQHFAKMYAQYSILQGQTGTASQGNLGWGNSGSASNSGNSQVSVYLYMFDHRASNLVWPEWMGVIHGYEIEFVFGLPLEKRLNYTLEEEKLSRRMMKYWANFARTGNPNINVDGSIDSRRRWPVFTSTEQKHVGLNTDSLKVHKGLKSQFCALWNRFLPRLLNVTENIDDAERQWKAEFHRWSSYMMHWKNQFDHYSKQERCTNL

Under “acetylthiocholine iodide (0.476 μM as printed), pH 8.0, 37 °C, 5 min pre-incubation”, Cardol returned an IC50 of 3.5 ± 0.2 µM. `CCCCCCCCCCCCCCCc1cc(O)cc(O)c1` [AR 15:0] came in with a half-maximal inhibitory concentration (IC50) of over 94 µM.

Molecule `CCCCCCCCCCCCCCCCCCCCCCCCCc1cc(O)cc(O)c1` [AR 25:0] gave an IC50 of 44 ± 4.24 µM. On the same count and under the same terms, with `CCCCCCCCCCCCCCCCCCCCCc1cc(O)cc(O)c1` [AR 21:0] the figure was 44 ± 0.47 µM.

For `CCCCCCCCCCCCCCCCCCCc1cc(O)cc(O)c1` [AR 19:0], half-maximal inhibition (IC50) was put at 77 ± 1.25 µM.

For the origin of these results see paper PMC4042574, “Phenolic Lipids Affect the Activity and Conformation of Acetylcholinesterase from Electrophorus electricus (Electric eel)” (Nutrients, 2014).
